Results from PMC3789093 (Oncology Letters, 2013).

Assays:
Assay type in all cases: biochemical
CYP1A1 [1] = molecular target: T1, CYP1A1 (Homo sapiens, UniProt P04798); assay: P450-Glo CYP1A1 luminescence assay, positive control at […]
T1 sequence (P04798 1-512): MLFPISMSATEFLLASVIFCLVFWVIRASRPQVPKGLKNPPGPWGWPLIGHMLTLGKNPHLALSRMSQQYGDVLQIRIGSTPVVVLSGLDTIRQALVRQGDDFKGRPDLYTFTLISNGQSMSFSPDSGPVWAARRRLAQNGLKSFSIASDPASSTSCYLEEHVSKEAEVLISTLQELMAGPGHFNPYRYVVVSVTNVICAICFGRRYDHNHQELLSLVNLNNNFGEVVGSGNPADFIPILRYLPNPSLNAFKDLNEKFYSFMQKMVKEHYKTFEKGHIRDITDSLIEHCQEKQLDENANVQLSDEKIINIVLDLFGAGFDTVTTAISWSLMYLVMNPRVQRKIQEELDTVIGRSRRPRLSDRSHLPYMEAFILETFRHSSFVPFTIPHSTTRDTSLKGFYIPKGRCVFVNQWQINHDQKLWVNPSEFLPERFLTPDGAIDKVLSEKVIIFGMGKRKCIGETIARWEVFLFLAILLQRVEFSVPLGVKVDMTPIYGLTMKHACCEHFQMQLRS

CYP3A4 = CYP3A4 (Homo sapiens, UniProt P08684); assay: Vivid CYP450 Screening kit fluorescence assay
Sequence of CYP3A4 (P08684 2-503): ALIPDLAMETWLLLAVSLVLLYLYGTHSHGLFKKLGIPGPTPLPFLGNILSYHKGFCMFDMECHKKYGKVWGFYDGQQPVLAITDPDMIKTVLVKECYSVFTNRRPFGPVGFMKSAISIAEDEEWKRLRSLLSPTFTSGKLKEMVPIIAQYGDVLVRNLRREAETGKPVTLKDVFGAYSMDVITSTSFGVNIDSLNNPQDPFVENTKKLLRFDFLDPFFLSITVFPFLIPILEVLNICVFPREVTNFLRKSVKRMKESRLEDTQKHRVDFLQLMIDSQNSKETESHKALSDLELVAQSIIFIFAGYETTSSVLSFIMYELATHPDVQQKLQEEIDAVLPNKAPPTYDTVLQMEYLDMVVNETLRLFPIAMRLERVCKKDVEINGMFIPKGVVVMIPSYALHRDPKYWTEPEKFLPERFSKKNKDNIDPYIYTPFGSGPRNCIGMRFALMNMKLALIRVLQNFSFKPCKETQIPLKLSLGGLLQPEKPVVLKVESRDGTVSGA

CYP1A2 = molecular target: T2, CYP1A2 (Homo sapiens, UniProt P05177); assay: Vivid CYP450 Screening kit fluorescence assay
T2 sequence (P05177 2-516): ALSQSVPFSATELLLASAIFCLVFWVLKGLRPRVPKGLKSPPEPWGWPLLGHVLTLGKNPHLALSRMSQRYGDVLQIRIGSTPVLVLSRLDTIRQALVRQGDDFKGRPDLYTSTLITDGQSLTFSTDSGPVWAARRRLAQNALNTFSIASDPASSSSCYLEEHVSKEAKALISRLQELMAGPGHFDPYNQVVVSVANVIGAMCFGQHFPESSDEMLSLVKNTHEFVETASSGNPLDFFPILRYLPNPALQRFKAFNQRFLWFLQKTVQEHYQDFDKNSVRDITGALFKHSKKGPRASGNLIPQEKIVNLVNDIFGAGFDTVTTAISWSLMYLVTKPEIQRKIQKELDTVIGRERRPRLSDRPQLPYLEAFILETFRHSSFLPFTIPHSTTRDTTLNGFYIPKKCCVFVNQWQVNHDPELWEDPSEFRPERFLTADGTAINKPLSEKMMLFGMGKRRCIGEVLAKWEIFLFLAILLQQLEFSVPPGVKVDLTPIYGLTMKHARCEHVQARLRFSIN

CYP1A1 [2] = molecular target: T1, CYP1A1; assay: P450-Glo CYP1A1 luminescence assay, recombinant enzyme in microsomes

Row | IC50 (CYP3A4) [µM] | IC50 (CYP1A2) [µM] | IC50 (CYP1A1 [2]) [µM] | SMILES | P450-Glo CYP1A1 luminescence assay, positive control at 1 μM (CYP1A1 [1])
1 | – | – | – | COc1ccc2[nH]c([S+]([O-])Cc3ncc(C)c(OC)c3C)nc2c1 (stereo not shown) [OMP, omeprazole] | significantly inhibited CYP1A1 activity, although the inhibition was weaker than that of omeprazole, a known CYP1A1 inhibitor
2 | 11 | 49 | 12.5 | CC(=O)O[C@H]1CC(C)(C)C(=C=C/C(C)=C/C=C/C(C)=C/C=C/C=C(C)/C=C/C=C(\C)C(=O)C[C@@]23O[C@]2(C)C[C@@H](O)CC3(C)C)[C@](C)(O)C1 [Fx, fucoxanthin] | –
